Test results from ChEMBL document CHEMBL1909046, “DrugMatrix in vitro pharmacology data”.

Tests used:
[1] = DRUGMATRIX: ATPase, Na+/K+ enzyme inhibition (substrate: ATP); type: tissue-based, Sus scrofa, Heart; details: Not Active = under 50% inhibition at 10 µM
[2] = DRUGMATRIX: Atrial Natriuretic Factor (ANF) radioligand binding (ligand: [125I] ANF (rat)); type: cell membranes, Cavia porcellus, Dunkin-Hartley, Adrenal gland, Membrane; details: Not Active = under 50% inhibition at 10 µM
[3] = DRUGMATRIX: Tumor Necrosis Factor (TNF), Non-Selective radioligand binding (ligand: [125I] TNF-alpha); type: cell membranes, Membrane; details: u-937; Not Active = under 50% inhibition at 10 µM
[4] = DRUGMATRIX: Nicotinic Acetylcholine radioligand binding (ligand: [125I] Epibatidine); type: cell membranes, Membrane; details: imr-32; Not Active = under 50% inhibition at 10 µM
Nitric oxide synthase 1 = Nitric oxide synthase 1 (Rattus norvegicus, UniProt P29476); type: tissue-based, Cerebellum; note: in other assays of this panel Not Active means under 50% inhibition at 10 µM
Sequence of Nitric oxide synthase 1 (P29476 whole entry): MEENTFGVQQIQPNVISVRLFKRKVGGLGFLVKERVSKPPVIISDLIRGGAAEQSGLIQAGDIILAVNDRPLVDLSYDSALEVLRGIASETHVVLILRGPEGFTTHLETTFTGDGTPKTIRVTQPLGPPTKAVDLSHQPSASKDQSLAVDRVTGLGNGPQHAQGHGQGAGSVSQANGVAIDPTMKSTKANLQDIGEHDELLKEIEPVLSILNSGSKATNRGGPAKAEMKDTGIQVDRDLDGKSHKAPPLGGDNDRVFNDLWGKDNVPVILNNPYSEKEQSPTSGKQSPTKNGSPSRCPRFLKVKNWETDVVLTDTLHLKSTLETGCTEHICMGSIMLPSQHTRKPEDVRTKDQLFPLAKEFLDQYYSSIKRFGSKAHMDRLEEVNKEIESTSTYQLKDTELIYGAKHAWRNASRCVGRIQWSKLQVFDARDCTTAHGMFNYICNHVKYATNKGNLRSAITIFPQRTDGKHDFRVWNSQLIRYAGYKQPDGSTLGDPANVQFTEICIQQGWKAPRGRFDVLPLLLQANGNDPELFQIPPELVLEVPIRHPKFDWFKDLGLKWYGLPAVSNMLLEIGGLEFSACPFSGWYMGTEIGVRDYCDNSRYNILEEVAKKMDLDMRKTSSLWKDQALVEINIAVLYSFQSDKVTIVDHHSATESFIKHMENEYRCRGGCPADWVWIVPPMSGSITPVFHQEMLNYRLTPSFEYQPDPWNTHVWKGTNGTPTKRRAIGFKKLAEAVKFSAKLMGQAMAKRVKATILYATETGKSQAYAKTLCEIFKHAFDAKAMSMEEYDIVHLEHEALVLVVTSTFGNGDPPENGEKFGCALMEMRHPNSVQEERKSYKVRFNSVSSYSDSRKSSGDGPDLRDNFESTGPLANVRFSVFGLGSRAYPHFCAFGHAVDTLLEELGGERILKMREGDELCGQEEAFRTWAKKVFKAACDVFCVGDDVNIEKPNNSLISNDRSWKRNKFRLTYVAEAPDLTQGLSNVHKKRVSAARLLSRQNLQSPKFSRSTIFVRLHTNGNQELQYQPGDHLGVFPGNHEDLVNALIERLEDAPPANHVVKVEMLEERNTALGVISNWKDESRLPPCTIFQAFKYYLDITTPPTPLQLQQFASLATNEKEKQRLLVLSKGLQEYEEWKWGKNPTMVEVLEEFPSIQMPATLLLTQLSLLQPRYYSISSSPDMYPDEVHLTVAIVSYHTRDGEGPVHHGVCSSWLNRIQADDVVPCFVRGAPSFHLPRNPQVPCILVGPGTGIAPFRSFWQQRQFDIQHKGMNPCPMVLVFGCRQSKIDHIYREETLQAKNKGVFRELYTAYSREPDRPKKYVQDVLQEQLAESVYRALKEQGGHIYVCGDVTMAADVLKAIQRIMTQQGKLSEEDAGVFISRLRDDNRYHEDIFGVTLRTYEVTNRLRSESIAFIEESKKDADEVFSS

[5] = molecular target: T1, Nitric oxide synthase, inducible (Mus musculus, UniProt P29477); set-up: species or system Escherichia coli;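 note: inhibition of iNOS enzyme activity measured with L-arginine as substrate; in other assays of this panel Not Active means under 50% inhibition at 10 µM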
T1 sequence (P29477 whole entry): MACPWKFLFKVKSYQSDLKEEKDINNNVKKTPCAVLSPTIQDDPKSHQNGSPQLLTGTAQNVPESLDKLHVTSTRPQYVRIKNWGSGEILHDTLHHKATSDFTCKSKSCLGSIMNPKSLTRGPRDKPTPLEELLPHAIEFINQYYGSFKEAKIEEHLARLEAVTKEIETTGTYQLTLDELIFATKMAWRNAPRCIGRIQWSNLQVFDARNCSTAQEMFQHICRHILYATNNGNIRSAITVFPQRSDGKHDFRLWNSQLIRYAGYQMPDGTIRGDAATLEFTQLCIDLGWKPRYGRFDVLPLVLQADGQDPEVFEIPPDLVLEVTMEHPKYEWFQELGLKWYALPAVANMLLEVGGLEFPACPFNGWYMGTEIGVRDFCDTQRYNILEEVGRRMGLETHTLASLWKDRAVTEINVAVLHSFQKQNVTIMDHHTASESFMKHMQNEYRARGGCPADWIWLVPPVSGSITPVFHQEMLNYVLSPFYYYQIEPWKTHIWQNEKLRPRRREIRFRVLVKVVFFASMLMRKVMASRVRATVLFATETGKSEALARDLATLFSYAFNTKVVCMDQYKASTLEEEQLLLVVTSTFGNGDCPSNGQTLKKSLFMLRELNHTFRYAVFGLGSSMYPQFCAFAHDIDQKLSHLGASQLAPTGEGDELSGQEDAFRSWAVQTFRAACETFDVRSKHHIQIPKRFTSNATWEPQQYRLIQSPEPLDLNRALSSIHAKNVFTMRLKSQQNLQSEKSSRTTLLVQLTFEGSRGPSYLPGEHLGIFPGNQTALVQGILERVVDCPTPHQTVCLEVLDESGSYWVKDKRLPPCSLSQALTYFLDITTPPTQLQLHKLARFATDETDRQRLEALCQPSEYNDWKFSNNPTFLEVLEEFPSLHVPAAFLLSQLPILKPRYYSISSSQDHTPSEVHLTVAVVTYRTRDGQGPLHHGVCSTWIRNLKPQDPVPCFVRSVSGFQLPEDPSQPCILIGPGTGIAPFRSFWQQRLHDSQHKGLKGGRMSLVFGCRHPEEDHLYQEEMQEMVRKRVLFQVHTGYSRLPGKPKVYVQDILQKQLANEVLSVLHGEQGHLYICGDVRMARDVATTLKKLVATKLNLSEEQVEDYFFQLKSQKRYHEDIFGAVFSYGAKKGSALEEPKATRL

Neutrophil elastase = molecular target: T2, Neutrophil elastase (Homo sapiens, UniProt P08246); type: tissue-based;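 note: inhibition of neutrophil elastase enzyme activity, measured with a p-nitroanilide-linked peptide substrate; in other assays of this panel Not Active means under 50% inhibition at 10 µM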
T2 sequence (P08246 whole entry): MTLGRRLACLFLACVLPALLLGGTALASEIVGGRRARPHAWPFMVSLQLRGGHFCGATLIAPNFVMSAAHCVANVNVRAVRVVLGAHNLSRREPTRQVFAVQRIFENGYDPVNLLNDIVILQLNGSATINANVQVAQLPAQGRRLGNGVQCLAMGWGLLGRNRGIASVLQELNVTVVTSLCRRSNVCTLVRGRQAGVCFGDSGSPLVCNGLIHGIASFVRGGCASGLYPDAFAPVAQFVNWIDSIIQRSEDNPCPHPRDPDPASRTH

Interstitial collagenase = molecular target: T3, Interstitial collagenase (Homo sapiens, UniProt P03956); type: tissue-based, Rheumatoid synovial fibroblasts;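 note: MMP-1 enzyme inhibition assay using a peptide substrate; in other assays of this panel Not Active means under 50% inhibition at 10 µM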
T3 sequence (P03956 whole entry): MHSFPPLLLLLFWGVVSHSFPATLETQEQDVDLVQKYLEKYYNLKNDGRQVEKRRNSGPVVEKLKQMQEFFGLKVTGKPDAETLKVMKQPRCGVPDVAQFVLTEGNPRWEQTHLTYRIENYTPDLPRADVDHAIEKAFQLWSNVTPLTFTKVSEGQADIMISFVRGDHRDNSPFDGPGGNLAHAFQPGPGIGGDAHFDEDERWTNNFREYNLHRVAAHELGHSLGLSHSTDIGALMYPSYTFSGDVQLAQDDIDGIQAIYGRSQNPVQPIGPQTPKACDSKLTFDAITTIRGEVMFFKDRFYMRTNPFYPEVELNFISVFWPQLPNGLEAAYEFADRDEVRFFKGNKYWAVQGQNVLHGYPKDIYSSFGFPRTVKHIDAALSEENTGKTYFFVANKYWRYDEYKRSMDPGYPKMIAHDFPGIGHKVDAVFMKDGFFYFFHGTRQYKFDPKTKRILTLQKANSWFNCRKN

Adenosine receptor A1 = molecular target: T4, Adenosine receptor A1 (Homo sapiens, UniProt P30542); type: cell membranes, CHO, Membrane; details: cho
T4 sequence (P30542 whole entry): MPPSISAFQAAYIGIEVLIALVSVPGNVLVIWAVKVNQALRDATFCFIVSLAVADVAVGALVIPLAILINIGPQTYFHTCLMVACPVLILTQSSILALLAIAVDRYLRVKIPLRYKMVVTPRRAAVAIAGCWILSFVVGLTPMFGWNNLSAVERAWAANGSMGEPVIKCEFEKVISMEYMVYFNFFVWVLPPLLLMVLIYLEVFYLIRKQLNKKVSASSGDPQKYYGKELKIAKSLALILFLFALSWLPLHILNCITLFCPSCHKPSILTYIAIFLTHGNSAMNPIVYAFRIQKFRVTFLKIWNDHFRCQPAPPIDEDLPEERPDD

## CC[C@@]1(O)C(=O)OCc2c1cc1n(c2=O)Cc2cc3ccccc3nc2-1 [CAMPTOTHECIN]
[1]
  IC50: Not Active
  Ki: Not Active
[2]
  IC50: Not Active
  Ki: Not Active
[3]
  IC50: Not Active
  Ki: Not Active
[4]
  IC50: Not Active
  Ki: Not Active
Nitric oxide synthase 1
  IC50: Not Active
[5]
  IC50: Not Active
Neutrophil elastase
  IC50: Not Active
Interstitial collagenase
  IC50: Not Active
Adenosine receptor A1
  IC50: Not Active

## CISPLATIN
[1]; read-out: IC50
  IC50: 9.43 µM
[2]
  IC50: Not Active
  Ki: Not Active
[3]
  IC50: Not Active
  Ki: Not Active
[4]
  IC50: Not Active
  Ki: Not Active
Nitric oxide synthase 1
  IC50: Not Active
  Ki: Not Active
[5]
  IC50: Not Active
  Ki: Not Active
Neutrophil elastase
  IC50: Not Active
  Ki: Not Active
Interstitial collagenase
  IC50: Not Active
  Ki: Not Active
Adenosine receptor A1
  IC50: Not Active
  Ki: Not Active

## OXALIPLATIN
[1]
  IC50: Not Active
  Ki: Not Active
[2]
  IC50: Not Active
  Ki: Not Active
[3]
  IC50: Not Active
  Ki: Not Active
[4]
  IC50: Not Active
  Ki: Not Active
Nitric oxide synthase 1
  IC50: Not Active
  Ki: Not Active
[5]
  IC50: Not Active
  Ki: Not Active
Neutrophil elastase
  IC50: Not Active
  Ki: Not Active
Interstitial collagenase
  IC50: Not Active
  Ki: Not Active
Adenosine receptor A1
  IC50: Not Active
  Ki: Not Active

## NCC(=O)O [GLYCINE]
[1]
  IC50: Not Active
  Ki: Not Active
[2]
  IC50: Not Active
  Ki: Not Active
[3]
  IC50: Not Active
  Ki: Not Active
[4]
  IC50: Not Active
  Ki: Not Active
Nitric oxide synthase 1
  IC50: Not Active
[5]
  IC50: Not Active
Neutrophil elastase
  IC50: Not Active
Interstitial collagenase
  IC50: Not Active
Adenosine receptor A1
  IC50: Not Active

## O=C1CCc2cc(OCCCCc3nnnn3C3CCCCC3)ccc2N1 [CILOSTAZOL]
[1]
  IC50: Not Active
  Ki: Not Active
[2]
  IC50: Not Active
  Ki: Not Active
[3]
  IC50: Not Active
  Ki: Not Active
[4]
  IC50: Not Active
  Ki: Not Active
Nitric oxide synthase 1
  IC50: Not Active
[5]
  IC50: Not Active
Neutrophil elastase
  IC50: Not Active
Interstitial collagenase
  IC50: Not Active
Adenosine receptor A1
  IC50: Not Active
